Test results as given in patent US9980986B2, “Methods of producing pancreatic hormones” (ViaCyte, Inc., priority 2006, dated 2018).

What was measured:
Assay type in all cases: cell-based
[1] = system: Human embryonic stem cells; experiment: hESC 16-day 4-step or 5-step differentiation time course, real-time quantitative PCR
Procedure: Human embryonic stem cells were differentiated for 16 days via either a 4-step or 5-step protocol to achieve islet hormone-expressing cells. The first step comprised 3 days differentiation in activin A (100 ng/mL) to robustly produce DE (D'Amour, K., et al., Nature Biotechnology 23, 1534-1541, (2005)). Step 2 comprised 3 days differentiation in RPMI with 2% FBS containing FGF10 (50 ng/mL) and KAAD-cyclopamine (0.2 μM). In the 4-step protocol, step 3 comprised 4 days differentiation in CMRL with B27 supplement (1:100) containing FGF10 (50 ng/mL), KAAD-cyclopamine (0.2 μM), retinoic acid (2 μM), and DAPT (1 μM). In the 5-step protocol, this 4 day period was broken into two separate treatments in the same base media. For 2 days the media contained FGF10 (50 ng/mL), KAAD-cyclopamine (0.2 μM), and retinoic acid (2 μM). During the subsequent 2 days, the FGF10 was removed and the gamma-secretase inhibitor DAPT (1 μM) was added. The last step of both protocols comprised 6 days differentiation in DMEM with B27 supplement (1:100) containing nicotinamide (10 mM), exendin 4 (40 ng/mL), hepatocyte growth factor (HGF 25 ng/mL), and insulin-like growth factor (IGF)-1 (50 ng/mL). Duplicate samples were taken from each plate at multiple time points and gene expression was analyzed by real-time quantitative PCR.

[2] = system: Human embryonic stem cells; experiment: hESC 19-day 5-step differentiation with varying DAPT concentrations, real-time quantitative PCR; conditions: DAPT 0, 1, 3 or 10 μM for 2 days in step 4
Procedure: Human embryonic stem cells were differentiated for 19 days via a 5-step protocol to achieve islet hormone-expressing cells. The first step comprised 5 days differentiation in activin A (100 ng/mL) to robustly produce DE (D'Amour, K., et al., Nature Biotechnology 23, 1534-1541, (2005)). Step 2 comprised 2 days differentiation in RPMI with 2% FBS containing FGF10 (50 ng/mL) and KAAD-cyclopamine (0.5 μM). Step 3 comprised 4 days differentiation in CMRL with B27 supplement (1:100) containing FGF10 (50 ng/mL), KAAD-cyclopamine (0.2 μM), and retinoic acid (1 μM). The fourth step comprised 2 days treatment with CMRL with B27 supplement (1:100) containing exendin 4 (40 ng/mL) and with varying concentrations of the gamma secretase inhibitor DAPT (0 μM, 1 μM, 3 μM, or 10 μM). The last step comprised 6 days differentiation in DMEM with B27 supplement (1:100) containing nicotinamide (10 mM), exendin 4 (40 ng/mL), and insulin-like growth factor (IGF)-1 (50 ng/mL). Duplicate samples were taken from each plate and gene expression was analyzed by real-time quantitative PCR.

[3] = system: Human embryonic stem cell lines; experiment: hESC differentiation by 5-step 17-day protocol (treatments i-iv), gene expression by real-time quantitative PCR; conditions: KAAD-cyclopamine maintained in the presence of retinoic acid during step 3
Procedure: Human embryonic stem cell lines were differentiated for 17 days via a 5-step protocol to produce pancreatic islet hormone-expressing cells. […] Step 2 comprised 3 days differentiation in RPMI with 2% FBS containing one of the following: (a) 100 ng/mL activin A (treatment i), (b) no exogenous growth factors (treatment ii), or (c) 50 ng/mL FGF10 and 0.5 μM KAAD-cyclopamine (treatments iii and iv). Step 3 comprised 3 days differentiation in CMRL with B27 supplement (1:100) containing either (a) 2 μM retinoic acid (treatments i-iii) or (b) 2 μM retinoic acid and 0.5 μM KAAD-cyclopamine (treatment iv). Steps 4 and 5 were the same for all conditions (treatments i-iv). Step 4 comprised 2 days differentiation in CMRL with B27 supplement (1:100) containing 1 μM DAPT and 40 ng/mL exendin 4. Step 5 comprised 5 days differentiation in CMRL with B27 supplement (1:100) containing 40 ng/mL exendin 4. Duplicate samples were taken from each plate at multiple time points and gene expression was analyzed by real-time quantitative PCR.

[4] = system: Human embryonic stem cells; experiment: hESC 17-day 4-step differentiation with or without retinoic acid, real-time quantitative PCR; conditions: retinoic acid about 0.1-5 μM for at least about 1 day
Procedure: Human embryonic stem cells were differentiated for 17 days via a 4-step protocol to achieve islet hormone-expressing cells. The first step comprised 5 days differentiation in activin A (100 ng/mL) to robustly produce DE (D'Amour, K., et al., Nature Biotechnology 23, 1534-1541, (2005)). Step 2 comprised 2 days differentiation in RPMI with 2% FBS containing FGF10 (50 ng/mL) and KAAD-cyclopamine (1 μM) followed by 2 more days that also contained DAPT (1 μM). Step 3 comprised 5 days differentiation in CMRL with B27 supplement (1:100) containing FGF10 (50 ng/mL), KAAD-cyclopamine (1 μM), DAPT (1 μM) and either with or without the addition of retinoic acid (1 μM). The fourth step comprised 4 days differentiation in CMRL with B27 supplement (1:100) containing nicotinamide (10 mM), exendin 4 (50 ng/mL), hepatocyte growth factor (HGF 25 ng/mL), and insulin-like growth factor (IGF)-1 (50 ng/mL). Duplicate samples were taken from each plate at multiple time points and gene expression was analyzed by real-time quantitative PCR.

Human ESCs [5] = experiment: hESC differentiation to insulin-expressing cells using noggin without exogenous retinoids, real-time PCR
Procedure: Human ESCs were differentiated to definitive endoderm cells via treatment with activin A (100 ng/ml) and Wnt3a (25 ng/ml) in RPMI+0% FBS for the first day and then for 2 more days with activin A (100 ng/ml) alone in RPMI+0.2% v/v FBS. Definitive endoderm was differentiated to foregut endoderm by treatment with KGF (50 ng/ml) and KAAD-cyclopamine (0.25 μM) for 3 days in RPMI+2% v/v FBS. Differentiation then proceeded in DMEM+1% v/v B27 supplement containing KGF (50 ng/ml) and KAAD-cyclopamine (0.25 μM) for one day followed by 5 additional days of the same with or without the addition of noggin (100 ng/ml). The B27 supplement used was either with (B27+) or without (B27-) vitamin A. On days 13, 14 and 15 of differentiation, the KGF was removed but the KAAD-cyclopamine (0.25 μM) and noggin (when used) remained in the culture medium. The differentiation medium for days 16-19 consisted of CMRL+1% v/v B27 (with or without vitamin A as in previous conditions) with no additional factors. Cultures were sampled in duplicate on days 3, 6, 9, 12, 15 and 19 of differentiation and analyzed for expression of pancreatic markers using real-time PCR.

[6] = system: Human embryonic stem cells; experiment: PDX1 protein and mRNA expression under different media conditions; conditions: insulin about 0.2-20 μg/ml or insulin-like growth factor about 10-500 ng/ml
Procedure: Human embryonic stem cells were differentiated in RPMI medium containing activin A (100 ng/ml) for 5 days. The FBS concentrations changed from 0% for the first 24 hours followed by 0.2% for the next 24 hrs and then to 2% for the remaining 3 days. During the next 4 days, the plates were subjected to different media conditions. They were either incubated in i) RPMI with 2% FBS and activin A (100 ng/ml), ii) RPMI with 2% FBS, activin A (25 ng/ml) and retinoic acid, iii) CMRL with 0.2% FBS and B27 supplement (1:100), activin A (25 ng/ml) and retinoic acid, and iv) CMRL with 0.2% FBS and B27 supplement (1:100), activin A (25 ng/ml), retinoic acid and exendin (40 ng/ml). The concentration of retinoic acid changed from 2 μM for 48 hours followed by 1 μM for 24 hours to 0.2 μM for the last 24 hours. The cells were harvested for protein and mRNA analyses on days 7, 8 and 9.
Without sufficient insulin signaling, PDX1 mRNA was expressed without significant translation into PDX1 protein (FIGS. 4A-4B). The base medium can be RPMI, CMRL, OptiMEM or DMEM with or without 2% FBS. If the base medium is supplemented with sufficient insulin/IGF and FGF10, PDX1 protein will be expressed.

[7] = system: Human embryonic stem cells; experiment: hESC 21-day 4-step differentiation with three step-1 conditions, real-time quantitative PCR; conditions: activin A 100 ng/ml, or follistatin 50 ng/ml and noggin 100 ng/ml
Procedure: Human embryonic stem cells were differentiated for 21 days via a 4-step protocol to achieve islet hormone-expressing cells. Three different conditions were used for the first step after which all plates received the identical treatment. The first step comprised 5 days differentiation under one of the following conditions: i) activin A (100 ng/ml) to robustly produce DE (D'Amour, K., et al., Nature Biotechnology 23, 1534-1541, (2005)), ii) 2% FBS with no exogenous growth factors, thereby producing mesoderm and extraembryonic endoderm, or iii) follistatin (50 ng/ml) and noggin (100 ng/ml), thereby producing neural ectoderm. Step 2 comprised 3 days differentiation in RPMI with 2% FBS containing FGF10 (50 ng/mL) and KAAD-cyclopamine (1 μM). Step 3 comprised 5 days differentiation in CMRL with B27 supplement (1:100) containing FGF10 (50 ng/mL), KAAD-cyclopamine (1 μM), retinoic acid (2 μM), and DAPT (1 μM). The fourth step consisted of 8 days differentiation in DMEM with B27 supplement (1:100) containing nicotinamide (10 mM), exendin 4 (40 ng/mL), hepatocyte growth factor (HGF-25 ng/mL), and insulin-like growth factor (IGF)-1 (50 ng/mL). Duplicate samples were taken from each plate at multiple time points and gene expression was analyzed by real-time quantitative PCR.

Human ESCs [8] = experiment: hESC differentiation using combination of noggin and retinoic acid, QPCR
Procedure: Human ESCs were differentiated to definitive endoderm via treatment with activin A (100 ng/ml) and Wnt3a (25 ng/ml) in RPMI+0% FBS for the first day and then for 2 more days with activin A (100 ng/ml) alone in RPMI+0.2% v/v FBS. Definitive endoderm was differentiated to foregut endoderm by treatment with KGF (50 ng/ml) and KAAD-cyclopamine (0.25 μM) for 3 days in RPMI+2% v/v FBS. Differentiation then proceeded for 3 days in DMEM+1% v/v B27 supplement containing KAAD-cyclopamine (0.25 μM) and all-trans retinoic acid (0.1 μM or 2 μM) with or without the addition of noggin (0, 30 or 100 ng/ml). This was followed by a 2 day treatment period with the gamma-secretase inhibitor DAPT (1 μM) provided in DMEM+1% v/v B27 and subsequently the cells were cultured in CMRL+1% v/v B27 with no additional growth factors.

[9] = noggin 100 ng/ml, B27 with or without vitamin A

Molecule: C[C@H](NC(=O)Cc1cc(F)cc(F)c1)C(=O)N[C@H](C(=O)OC(C)(C)C)c1ccccc1 [DAPT, N—[N-(3,5-difluorophenacetyl)-L-alanyl]-S-phenylglycine t-butyl ester]
- Effect on NGN3 and PAX4 expression ([1]; 2-4 day application of DAPT in terminal days of RA addition or after RA withdrawal): transient induction of NGN3 and PAX4 expression
- Effect on expression of pancreatic hormones and transcription factors after 19 days [2]: very little to no insulin, glucagon, somatostatin or principal pancreatic transcription factors were produced in the absence of DAPT

Molecule: CC1=C2C[C@H]3[C@@H](CC=C4CC(=O)CC[C@@]43C)[C@@H]2CC[C@]12O[C@@H]1C[C@H](C)CN(CCNC(=O)CCCCCNC(=O)CCc3ccccc3)[C@H]1[C@H]2C [KAAD-cyclopamine]
- Increase of performance of endocrine differentiation relative to treatment iii [3]: 2 fold

Molecule: CC1=C(/C=C/C(C)=C/C=C/C(C)=C/C(=O)O)C(C)(C)CCC1 [retinoic acid, all-trans retinoic acid]
- Effect on insulin expression [4]: insulin was not expressed unless retinoic acid was applied
- Effect on HNF6 and PDX1 expression ([1]; retinoic acid 2 μM in step 3): robustly increased expression of HNF6 and PDX1

Molecule: CC1=C(/C=C/C(C)=C/C=C/C(C)=C/CO)C(C)(C)CCC1 [vitamin A, retinol, reference compound]
- Magnitude of pancreatic hormone expression (Human ESCs [5]; B27 supplement with versus without vitamin A): enhanced by the presence of vitamin A

Molecule: insulin-like growth factor
- Effect on PDX1 protein expression [6]: promotes the expression of PDX1 protein

Molecule: insulin: insulin as medium supplement
- Effect on PDX1 protein expression [6]: promotes the expression of PDX1 protein

B1: activin A: growth factor of the TGFβ superfamily (protein, UniProt P08476 311-426, looked up)
Inhibin beta A chain: GLECDGKVNICCKKQFFVSFKDIGWNDWIIAPSGYHANYCEGECPSHIAGTSGSSLSFHSTVINHYRMRGHSPFANLKSCCVPTKLRPMSMLYYDDGQNIIKKDIQNMIVEECGCS
- Lineage marker expression at 5 days of differentiation (step 1) [7]: robust production of definitive endoderm

B2: noggin: recombinant human Noggin (protein, UniProt Q13253 28-232, looked up)
Noggin: QHYLHIRPAPSDNLPLVDLIEHPDPIFDPKEKDLNETLLRSLLGGHYDPGFMATSPPEDRPGGGGGAAGGAEDLAELDQLLRQRPSGAMPSEIKGLEFSEGLAQGKKQRLSKKLRRKLQMWLWSQTFCPVLYAWNDLGSRFWPRYVKVGSCFSKRSCSVPEGMVCKPSKSVHLTVLRWRCQRRGGQRCGWIPIQYPIISECKCSC
- Expression of pancreatic hormones INS, GCG, SST and GHRL (Human ESCs [5]; noggin 100 ng/ml): also dependent on the presence of noggin
- Induction of PDX1 gene expression (Human ESCs [5]; [9]): not dependent on either noggin treatment
- NGN3 expression induced at day 12 (pancreatic endocrine differentiation) (Human ESCs [5]; [9]): highly dependent on the presence of noggin
- Expression levels of PDX1 at days 9 or 11 (Human ESCs [8]; noggin 0, 30 or 100 ng/ml with retinoic acid 0.1 μM or 2 μM): very little effect
- Expression of NGN3 at day 9 (Human ESCs [8]; noggin added to low dose RA (0.1 μM)): dramatically enhanced
